Broadly, the Ki is a dissociation constant, usually derived from enzyme kinetics or from competition with a known ligand.

Structures are written as SMILES. Where two headings read alike, the source gives them in different places.

From US20240150293A1, “SPIROCYCLOHEXANE DERIVATIVES, PHARMACEUTICAL COMPOSITIONS CONTAINING THEM AND THEIR USES AS ANTI-APOPTOTIC INHIBITORS” (LES LABORATOIRES SERVIER, priority 2021, published 2024) come the findings set out here.

Assay [1] has as its target Cy5-labelled Mcl1 (amino acids 171-321) C286S protein (UniProtKB Q07820) (Homo sapiens (Human), UniProt Q07820, C286S). The assay is described as follows: Inhibition of Mcl-1 by the fluorescence quenching assay (Example A, Method B). The assay is classed as binding. The method in brief: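 Cy5-labelled Mcl1 171-321 C286S (1 nM) quenched by TQ5WS-labelled PUMA peptide (10, 20 or 400 nM); displacement raises fluorescence (Ex 620/Em 680 nm). Buffer 10 mM HEPES, 150 mM NaCl, 0.05% Tween 20, pH 7.4, 5% DMSO; 2 h at room temperature, 11-point curves, IC50 converted to Ki (cKi/eKi).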

For the next assay, the system named is NCI-H929 cell lines. The assay is described as follows: In vitro cytotoxicity, CellTiter-Glo (CTG) assay (Example B, Method B). In kind it is cell-based. The note with it: NCI-H929 cells, 48 h incubation, read-out: C50. The method, then: Cellular viability was monitored with the cell viability assay (Cell Titer-Glo®) on NCI-H929 cell lines. The CellTiter-Glo® (CTG) Luminescent Cell Viability Assay (from Promega) is a homogeneous method to determine the number of viable cells in culture based on quantitation of the ATP present, which signals the presence of metabolically active cells.
Concentration response of test compounds are performed with 10 mM stock solutions (DMSO), 11-points curve, in a 384-well compound plate. The assay plate is prepared by stamping 120 nL from compound dilution plate of all different concentrations (e.g. 10 mM to have final 30 μM assay test) into a cell culture microplate, using Echo acoustic liquid handling (Labcyte, Beckman). 40 μl of cell solution is added and cells are incubated with compounds for 48 h at 37° C., 5% CO2. CTG was added to the cells (according to the manufacturer instructions) and luminescence intensity was recorded using the Pherastar plate reader (BMG).
This assay provides in vitro cellular efficacy of compounds of Formula (I) tested, measuring the C50, defined as the concentration needed to reach 50% of the cellular viability.

Chain of Cy5-labelled Mcl1 (amino acids 171-321) C286S protein (Q07820 171-321 C286S): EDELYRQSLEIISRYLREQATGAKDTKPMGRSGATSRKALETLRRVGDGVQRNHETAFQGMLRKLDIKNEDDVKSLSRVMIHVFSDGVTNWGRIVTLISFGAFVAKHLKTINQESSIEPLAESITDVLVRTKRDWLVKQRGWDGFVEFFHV

Consider `CC1COc2cc3c(cc2OC1)[C@]1(CC[C@@](Nc2cccc(Cl)c2)(C(=O)O)CC1)[C@@H](C[C@@H](C)COc1ccnc2c1[C@H](C)CCC2)C3` (single isomer, unassigned) [Example 982], for which the Ki in assay [1] was determined as 0.0264 nM. Moreover, the IC50 in the assay on NCI-H929 cell lines worked out at 157 nM.

For the compound `CC1COc2cc3c(cc2OC1)[C@]1(CC[C@@](Nc2cccc(Cl)c2)(C(=O)O)CC1)[C@@H](C[C@@H](C)COc1ccnc2c1[C@H](C)CCC2)C3` (single isomer, unassigned) [Example 983], the Ki in assay [1] was determined as 0.037 nM. In addition, the IC50 in the assay on NCI-H929 cell lines is 74.4 nM.

For `CCC1COc2cc3c(cc2OC1)[C@]1(CC[C@@](Nc2cccc(Cl)c2)(C(=O)O)CC1)[C@@H](C[C@@H](C)COc1ccnc2c1[C@H](C)CCC2)C3` (single isomer, unassigned) [Example 988], in assay [1], the Ki turned out to be 0.0323 nM. Also, the IC50 with NCI-H929 cell lines came out at 204 nM.

As for `CCC1COc2cc3c(cc2OC1)[C@]1(CC[C@@](Nc2cccc(Cl)c2)(C(=O)O)CC1)[C@@H](C[C@@H](C)COc1ccnc2c1[C@H](C)CCC2)C3` (single isomer, unassigned) [Example 989], in assay [1], the Ki was found to be 0.0288 nM. For the same compound, in the assay on NCI-H929 cell lines, the IC50 was determined as 88.5 nM.

With `CCCC1COc2cc3c(cc2OC1)[C@]1(CC[C@@](Nc2cccc(Cl)c2)(C(=O)O)CC1)[C@@H](C[C@@H](C)COc1ccnc2c1[C@H](C)CCC2)C3` (single isomer, unassigned) [Example 990], the Ki in assay [1] was 0.0575 nM. Moreover, in the assay with NCI-H929 cell lines, the IC50 came to 353 nM.

Regarding `CCCC1COc2cc3c(cc2OC1)[C@]1(CC[C@@](Nc2cccc(Cl)c2)(C(=O)O)CC1)[C@@H](C[C@@H](C)COc1ccnc2c1[C@H](C)CCC2)C3` (single isomer, unassigned) [Example 991], the Ki in assay [1] was 0.0764 nM. Further, the IC50 in the assay on NCI-H929 cell lines amounted to 162 nM.

As to `CC(C)C1COc2cc3c(cc2OC1)[C@]1(CC[C@@](Nc2cccc(Cl)c2)(C(=O)O)CC1)[C@@H](C[C@@H](C)COc1ccnc2c1[C@H](C)CCC2)C3` (single isomer, unassigned) [Example 992], the Ki in assay [1] was 0.0795 nM. The IC50 with NCI-H929 cell lines (Homo sapiens, NCI-H929, 48 h) was found to be 184 nM.

For the compound `CC(C)C1COc2cc3c(cc2OC1)[C@]1(CC[C@@](Nc2cccc(Cl)c2)(C(=O)O)CC1)[C@@H](C[C@@H](C)COc1ccnc2c1[C@H](C)CCC2)C3` (single isomer, unassigned) [Example 993], in assay [1], the Ki was 0.0666 nM. Besides, the IC50 with NCI-H929 cell lines turned out to be 143 nM.

Take `C[C@@H](COc1ccnc2c1[C@H](C)CCC2)CN1Cc2ccccc2[C@]12CC[C@@](Nc1cccc(Cl)c1)(C(=O)O)CC2` [Example 40, (1s,4S)-4-(3-chloroanilino)-2′-[(2R)-2-methyl-3-{[(5R)-5-methyl-5,6,7,8-tetrahydroquinolin-4-yl]oxy}propyl]-2′,3′-dihydrospiro[cyclohexane-1,1′-isoindole]-4-carboxylic acid]: the Ki in assay [1] (Ki determined from IC50) was determined as 0.981 nM. Also, the IC50 in the assay with NCI-H929 cell lines (Homo sapiens, NCI-H929, 48 h) came out at 280 nM.

Consider `COc1cc2c(cc1F)CN(C[C@@H](C)COc1ccnc3c1[C@H](C)CCC3)[C@]21CC[C@](Nc2cccc(Cl)c2)(C(=O)O)CC1` [Example 43, (1s,4S)-4-(3-chloroanilino)-5′-fluoro-6′-methoxy-2′-[(2R)-2-methyl-3-{[(5R)-5-methyl-5,6,7,8-tetrahydroquinolin-4-yl]oxy}propyl]-2′,3′-dihydrospiro[cyclohexane-1,1′-isoindole]-4-carboxylic acid], for which the Ki in assay [1] (Ki determined from IC50) came to 0.25 nM. Also, in the assay with NCI-H929 cell lines (Homo sapiens, NCI-H929, 48 h), the IC50 turned out to be 162 nM.

Turning to `C[C@@H](COc1ccnc2c1[C@H](C)CCC2)CN1Cc2cc3c(cc2[C@]12CC[C@](Nc1cccc(Cl)c1)(C(=O)O)CC2)OCO3` [Example 45, (1r,4R)-4-(3-chloroanilino)-6′-[(2R)-2-methyl-3-{[(5R)-5-methyl-5,6,7,8-tetrahydroquinolin-4-yl]oxy}propyl]-6′,7′-dihydro-2′H-spiro[cyclohexane-1,5′-[1,3]dioxolo[4,5-f]isoindole]-4-carboxylic acid], the Ki in assay [1] (Ki determined from IC50) was found to be 300 nM. Moreover, the IC50 with NCI-H929 cell lines (Homo sapiens, NCI-H929, 48 h) was determined as 24200 nM.

In the case of `COc1cc2c(cc1Cl)CN(C[C@@H](C)COc1ccnc3c1[C@H](C)CCC3)[C@]21CC[C@](Nc2cccc(Cl)c2)(C(=O)O)CC1` [Example 46, (1s,4S)-5′-chloro-4-(3-chloroanilino)-6′-methoxy-2′-[(2R)-2-methyl-3-{[(5R)-5-methyl-5,6,7,8-tetrahydroquinolin-4-yl]oxy}propyl]-2′,3′-dihydrospiro[cyclohexane-1,1′-isoindole]-4-carboxylic acid], the Ki in assay [1] (Ki determined from IC50) was found to be 0.255 nM. Also, the IC50 in the assay on NCI-H929 cell lines (Homo sapiens, NCI-H929, 48 h) came out at 262 nM.

With `C[C@@H](COc1ccnc2c1[C@H](C)CCC2)CN1Cc2cc3c(cc2[C@]12CC[C@@](Nc1ccc(F)c(Cl)c1)(C(=O)O)CC2)OCO3` [Example 47, (1s,4S)-4-(3-chloro-4-fluoroanilino)-6′-[(2R)-2-methyl-3-{[(5R)-5-methyl-5,6,7,8-tetrahydroquinolin-4-yl]oxy}propyl]-6′,7′-dihydro-2′H-spiro[cyclohexane-1,5′-[1,3]dioxolo[4,5-f]isoindole]-4-carboxylic acid], in assay [1] (Ki determined from IC50), the Ki amounted to 0.0933 nM. Besides, the IC50 in the assay with NCI-H929 cell lines (Homo sapiens, NCI-H929, 48 h) is 37.4 nM.

`C[C@@H](COc1ccnc2c1[C@H](C)CCC2)CN1Cc2cc3c(cc2[C@]12CC[C@](Nc1ccc(F)c(Cl)c1)(C(=O)O)CC2)OCO3` [Example 48, (1r,4R)-4-(3-chloro-4-fluoroanilino)-6′-[(2R)-2-methyl-3-{[(5R)-5-methyl-5,6,7,8-tetrahydroquinolin-4-yl]oxy}propyl]-6′,7′-dihydro-2′H-spiro[cyclohexane-1,5′-[1,3]dioxolo[4,5-f]isoindole]-4-carboxylic acid]: in assay [1] (Ki determined from IC50), the Ki turned out to be 104 nM. In addition, in the assay on NCI-H929 cell lines (Homo sapiens, NCI-H929, 48 h), the IC50 was found to be 21500 nM.

For the compound `Cc1c(Cl)cccc1N[C@]1(C(=O)O)CC[C@]2(CC1)c1cc3c(cc1CN2C[C@@H](C)COc1ccnc2c1[C@H](C)CCC2)OCO3` [Example 49, (1s,4S)-4-(3-chloro-2-methylanilino)-6′-[(2R)-2-methyl-3-{[(5R)-5-methyl-5,6,7,8-tetrahydroquinolin-4-yl]oxy}propyl]-6′,7′-dihydro-2′H-spiro[cyclohexane-1,5′-[1,3]dioxolo[4,5-f]isoindole]-4-carboxylic acid], the Ki in assay [1] (Ki determined from IC50) was found to be 0.31 nM. Also, the IC50 in the assay with NCI-H929 cell lines (Homo sapiens, NCI-H929, 48 h) is 242 nM.

Turning to `Cc1c(Cl)cccc1N[C@]1(C(=O)O)CC[C@@]2(CC1)c1cc3c(cc1CN2C[C@@H](C)COc1ccnc2c1[C@H](C)CCC2)OCO3` [Example 50, (1r,4R)-4-(3-chloro-2-methylanilino)-6′-[(2R)-2-methyl-3-{[(5R)-5-methyl-5,6,7,8-tetrahydroquinolin-4-yl]oxy}propyl]-6′,7′-dihydro-2′H-spiro[cyclohexane-1,5′-[1,3]dioxolo[4,5-f]isoindole]-4-carboxylic acid], the Ki in assay [1] (Ki determined from IC50) stood at 72 nM. Also, the IC50 with NCI-H929 cell lines (Homo sapiens, NCI-H929, 48 h) is 13500 nM.

For the compound `COCc1cc2c(cc1F)CN(C[C@@H](C)COc1ccnc3c1[C@H](C)CCC3)[C@]21CC[C@](Nc2cccc(Cl)c2)(C(=O)O)CC1` [Example 51, (1s,4S)-4-(3-chloroanilino)-5′-fluoro-6′-(methoxymethyl)-2′-[(2R)-2-methyl-3-{[(5R)-5-methyl-5,6,7,8-tetrahydroquinolin-4-yl]oxy}propyl]-2′,3′-dihydrospiro[cyclohexane-1,1′-isoindole]-4-carboxylic acid], the Ki in assay [1] (Ki determined from IC50) turned out to be 0.0762 nM. The IC50 in the assay with NCI-H929 cell lines (Homo sapiens, NCI-H929, 48 h) stood at 37.7 nM.
